Assay [1] can be described thus: Induction of cardiogenesis in human embryonic stem cells by DAPI staining based immunofluorescence method relative to control. Type of assay: functional, Embryonic stem cell.
Assay [2] concerns Danio rerio. Briefly: Inhibition of BMPR in zebra fish embryo assessed as dorsalization administered 3 hr post fertilization.
A short description of assay [3]: Induction of cardiogenesis in human embryonic stem cells assessed as as enrichment of pacemaker like cardiomyocytes (reference value: 21%). Type of assay: functional, Embryonic stem cell.
Assay [4] can be described thus: Induction of cardiogenesis in mouse embryonic stem cells assessed as enrichment of pacemaker like cardiomyocytes by patch clamp technique (reference value: 7%). Type of assay: functional, Embryonic stem cell. (In patch-clamp work, channel activity is measured electrically.)
The nature of assay [5]: Induction of cardiogenesis in mouse embryonic stem cells assessed as enrichment of atrial like cardiomyocytes by patch clamp technique (reference value: 7%). In kind it is functional, Embryonic stem cell.
Assay [6] in a line: Suppression of cardiogenesis in mouse embryonic stem cells assessed as ventricular like cardiomyocytes by patch clamp technique (reference value: 86%). In kind it is functional, Embryonic stem cell.
Assay [7] is described as follows: Induction of cardiogenesis in mouse CGR8 cells assessed as cardiac troponin positive cells measured on day 5 +10+2 EB-derived cells by flow cytometry analysis (reference value: 11%). In kind it is functional. (In flow cytometry, cells or beads pass a laser one at a time.)
The target in assay [8] is T1, Activin receptor type-1 (Homo sapiens, UniProt Q04771).
T1 sequence (Q04771 whole entry): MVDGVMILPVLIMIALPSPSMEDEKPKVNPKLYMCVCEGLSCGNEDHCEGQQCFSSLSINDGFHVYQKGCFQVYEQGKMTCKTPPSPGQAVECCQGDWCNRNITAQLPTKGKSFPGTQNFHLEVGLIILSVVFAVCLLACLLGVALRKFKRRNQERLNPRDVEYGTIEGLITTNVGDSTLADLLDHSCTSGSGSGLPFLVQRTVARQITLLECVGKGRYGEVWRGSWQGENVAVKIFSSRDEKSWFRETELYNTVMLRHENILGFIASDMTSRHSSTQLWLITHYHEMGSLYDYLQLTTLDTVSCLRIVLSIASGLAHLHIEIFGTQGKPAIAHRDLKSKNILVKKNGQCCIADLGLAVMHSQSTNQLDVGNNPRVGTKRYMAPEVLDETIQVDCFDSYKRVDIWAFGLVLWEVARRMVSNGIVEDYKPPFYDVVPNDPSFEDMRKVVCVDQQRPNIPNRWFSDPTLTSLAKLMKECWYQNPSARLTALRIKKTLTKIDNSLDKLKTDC
Briefly: Inhibition of human ALK2 in presence of (33P)gamma ATP.

The target of assay [9] is T2, TGF-beta receptor type-1 (Homo sapiens, UniProt P36897).
T2 sequence (P36897 whole entry): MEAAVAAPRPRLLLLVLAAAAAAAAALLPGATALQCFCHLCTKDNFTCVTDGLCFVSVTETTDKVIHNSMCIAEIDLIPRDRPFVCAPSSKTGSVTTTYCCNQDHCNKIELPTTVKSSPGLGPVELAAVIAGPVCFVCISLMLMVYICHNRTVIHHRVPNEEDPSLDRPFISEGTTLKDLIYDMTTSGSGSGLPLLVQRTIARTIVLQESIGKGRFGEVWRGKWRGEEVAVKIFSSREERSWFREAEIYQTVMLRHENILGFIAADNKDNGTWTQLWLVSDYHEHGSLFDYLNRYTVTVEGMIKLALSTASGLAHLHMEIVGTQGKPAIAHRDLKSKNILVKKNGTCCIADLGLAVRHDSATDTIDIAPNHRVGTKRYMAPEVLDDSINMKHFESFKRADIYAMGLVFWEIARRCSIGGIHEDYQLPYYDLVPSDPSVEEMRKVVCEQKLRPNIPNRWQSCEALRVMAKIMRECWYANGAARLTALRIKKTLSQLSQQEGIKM
Description: Inhibition of human ALK5 in presence of (33P)gamma ATP.

Assay [10] concerns the target Vascular endothelial growth factor receptor 2 (Homo sapiens, UniProt P35968). Briefly: Inhibition of human KDR in presence of (33P)gamma ATP.

The results in this text go back to ChEMBL document CHEMBL3745593, “Medicinal Chemistry Approaches to Heart Regeneration” (J Med Chem, 2015).

Molecules are shown by their SMILES.

Chain of Vascular endothelial growth factor receptor 2 (P35968 whole entry): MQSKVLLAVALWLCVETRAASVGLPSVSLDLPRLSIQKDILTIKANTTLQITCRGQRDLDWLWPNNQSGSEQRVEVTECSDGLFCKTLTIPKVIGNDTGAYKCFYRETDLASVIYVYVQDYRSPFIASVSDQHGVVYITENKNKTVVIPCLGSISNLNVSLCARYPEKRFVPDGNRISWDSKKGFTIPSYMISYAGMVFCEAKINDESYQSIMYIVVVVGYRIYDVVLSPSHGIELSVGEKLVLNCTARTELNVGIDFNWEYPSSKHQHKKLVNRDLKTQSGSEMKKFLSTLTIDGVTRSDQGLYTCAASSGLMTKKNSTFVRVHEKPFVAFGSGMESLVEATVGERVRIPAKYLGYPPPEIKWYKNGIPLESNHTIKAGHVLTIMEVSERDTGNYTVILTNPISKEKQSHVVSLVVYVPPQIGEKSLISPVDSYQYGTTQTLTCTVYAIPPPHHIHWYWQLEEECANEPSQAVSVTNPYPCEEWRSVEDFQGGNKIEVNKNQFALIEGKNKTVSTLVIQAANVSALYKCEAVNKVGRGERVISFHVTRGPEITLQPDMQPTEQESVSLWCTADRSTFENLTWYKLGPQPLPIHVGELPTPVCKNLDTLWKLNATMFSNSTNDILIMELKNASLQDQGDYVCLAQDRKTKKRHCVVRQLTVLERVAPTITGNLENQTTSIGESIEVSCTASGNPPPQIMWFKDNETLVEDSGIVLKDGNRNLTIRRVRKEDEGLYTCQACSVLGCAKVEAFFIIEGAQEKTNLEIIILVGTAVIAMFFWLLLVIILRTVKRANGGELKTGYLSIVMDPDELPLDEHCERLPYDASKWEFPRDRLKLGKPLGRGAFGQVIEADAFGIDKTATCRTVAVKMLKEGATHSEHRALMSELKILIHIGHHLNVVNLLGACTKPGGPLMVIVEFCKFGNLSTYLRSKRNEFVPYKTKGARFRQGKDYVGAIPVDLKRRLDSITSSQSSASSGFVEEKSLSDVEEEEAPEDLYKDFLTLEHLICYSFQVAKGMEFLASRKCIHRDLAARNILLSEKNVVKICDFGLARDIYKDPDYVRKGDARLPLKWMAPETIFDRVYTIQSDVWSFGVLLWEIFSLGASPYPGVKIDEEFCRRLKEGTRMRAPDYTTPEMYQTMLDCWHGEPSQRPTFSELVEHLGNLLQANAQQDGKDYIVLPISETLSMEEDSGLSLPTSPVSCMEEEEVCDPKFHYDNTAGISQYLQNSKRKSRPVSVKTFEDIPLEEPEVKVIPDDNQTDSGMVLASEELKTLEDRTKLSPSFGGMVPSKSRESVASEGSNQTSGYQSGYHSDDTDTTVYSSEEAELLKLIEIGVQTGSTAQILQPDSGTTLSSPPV

As to `C[S+]([O-])c1ccc(-c2nc(-c3ccc(F)cc3)c(-c3ccncc3)[nH]2)cc1` (configuration not stated) [SB-203580], the “fold change (FC)” value in assay [1] was 2.5.
For the molecule `c1ccc2c(-c3cnn4cc(-c5ccc(N6CCNCC6)cc5)cnc34)ccnc2c1`, in assay [2], the EC100 stood at 3 µM.
`COc1cc2ncnc(Nc3cccc(Cl)c3)c2cc1OC` [TYRPHOSTIN AG-1478]: the Activity in assay [3] was 52%.
As to `CCn1c(=O)[nH]c2ccccc21`, the Activity is 58% in assay [4], 21% in [5], 21% in assay [6] and 59% in assay [7].
In the case of `CC(C)Oc1ccc(-c2cnc3c(-c4ccnc5ccccc45)cnn3c2)cc1`, the EC100 in [2] came out at 0.2 µM. Moreover, the IC50 in assay [8] worked out at 0.1 µM.
Turning to `c1cc(-c2cnn3cc(-c4ccc(OCCN5CCCCC5)cc4)cnc23)ccn1` [DORSOMORPHIN], the figures for the IC50 in [9] and in assay [10] were 10 µM and 0.22 µM, respectively. Moreover, the EC100 in assay [2] amounted to 2.5 µM.

In general, IC50 refers to the concentration that inhibits the measured activity by half.
